Results: ChEMBL document CHEMBL1136637, “Prodrugs to enhance central nervous system effects of the TRH-like peptide pGlu-Glu-Pro-NH2” (Bioorg Med Chem Lett, 2003)
Square brackets hold non-standard residues; d marks the D form. Peptide text beside a SMILES is read from it. * marks the point of attachment. ξ: configuration not given here. pGlu = O=C1CC[C@@H](C(=O)O)N1; ξE = NC(CCC(=O)O)C(=O)O; OcHex = C1CCC(O*)CC1; OBn = c1ccc(CO*)cc1; OtBu = CC(C)(C)O*

Experiments:
[1] = Half-life using mouse brain homogenate; format: ADME
Mus musculus [2] = species on record: Mus musculus; assay: (§1) Effective dose required for producing 50% of the maximum analeptic response was determined; format: functional
Mus musculus [3] = species on record: Mus musculus; assay: as §1; format: functional, organism-based

Row | half-life [1] [min] | EC50 (Mus musculus [3]) [µM/kg] | Compound | ED50 (Mus musculus [2]) [µmol/kg]
1 | – | 23.2 | NC(=O)[C@@H]1CCCN1C(=O)[C@H](CCC(=O)O)NC(=O)[C@@H]1CCC(=O)N1 ([pGlu]-Glu-Pro-NH2) | –
2 | 20 | – | COC(=O)CCC(NC(=O)[C@@H]1CCC(=O)N1)C(=O)N1CCC[C@H]1C(N)=O (some centres not stated) ([pGlu]-[ξE](OMe)-Pro-NH2) | –
3 | 25 | – | NC(=O)[C@@H]1CCCN1C(=O)C(CCC(=O)OC1CCCCC1)NC(=O)[C@@H]1CCC(=O)N1 (some centres not stated) ([pGlu]-[ξE](OcHex)-Pro-NH2) | –

Continued, compound first:

Row | Compound | half-life [1] [min] | EC50 (Mus musculus [3]) [µM/kg] | ED50 (Mus musculus [2]) [µmol/kg]
4 | CCCCCCOC(=O)CCC(NC(=O)[C@@H]1CCC(=O)N1)C(=O)N1CCC[C@H]1C(N)=O (some centres not stated) | 22 | – | 2.4
5 | NC(=O)[C@@H]1CCCN1C(=O)C(CCC(=O)OCc1ccccc1)NC(=O)[C@@H]1CCC(=O)N1 (some centres not stated) ([pGlu]-[ξE](OBn)-Pro-NH2) | > 120 | – | –
6 | CC(C)(C)OC(=O)CCC(NC(=O)[C@@H]1CCC(=O)N1)C(=O)N1CCC[C@H]1C(N)=O (some centres not stated) ([pGlu]-[ξE](OtBu)-Pro-NH2) | 70 | – | –
